Among the data in patent publication US8940742B2, “Heterocyclic compounds and uses thereof” (Infinity Pharmaceuticals, Inc., priority 2012, dated 2015) are IC50 values, retold here.

Bounds are passed on as bounds.

The target in one experiment is T1, PI3K α (Homo sapiens, UniProt P42336).
T1 construct: purchased Millipore
Description: PI3-Kinase Promega ADP-Glo Max assay. To be noted: 20 nM kinase, 3 mM ATP, 500 uM diC8-PtdInsP. It counts as biochemical. The procedure, abridged:
(§1)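 Human class I PI3K (20 nM α or δ, 40 nM β) pre-incubated 15 min with compound in HEPES pH 7.4 buffer with MgCl2, then reacted 2 h at room temperature with 3 mM ATP and 500 uM diC8-PtdInsP. ADP measured by ADP-Glo Max luminescence; % inhibition fitted to 4-parameter logistic for IC50.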
Background: ADP-Glo first removes unused ATP, then detects ADP through luciferase.

A further experiment deals with T2, PI3K β (Homo sapiens, UniProt P42338).
T2 construct: purchased Millipore
Description: PI3-Kinase Promega ADP-Glo Max assay. It counts as biochemical. To be noted: 40 nM kinase, 3 mM ATP, 500 uM diC8-PtdInsP. The procedure, abridged: as §1

Another experiment addresses T3, PI3K δ (Homo sapiens, UniProt O00329).
T3 construct: purchased Millipore
The experiment can be described thus: PI3-Kinase Promega ADP-Glo Max assay. It counts as biochemical. The settings on record: 20 nM kinase, 3 mM ATP, 500 uM diC8-PtdInsP. In a few lines:
as §1

A further experiment deals with RAJI p110 δ (Homo sapiens, UniProt O00329). Description: RAJI p110 δ cellular assay (phospho-AKT).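 Note: potency based on lowered phosphorylated AKT in RAJI cells, as a readout of PI3K-δ dependent B-cell receptor signaling.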
In another experiment the target is T4, Raw264.7 p110 γ (Mus musculus, UniProt Q9JHG7).
T4 construct: reduction of phospho-AKT in stimulated RAW 264.7 cells; endogenous in cells; host or cells: RAW264.7 macrophages
Description: Raw264.7 p110 γ cellular assay (phospho-AKT). The settings on record: serum-starved RAW264.7 cells stimulated with C5a. It counts as cell-based. The source says: (b) PI3K-γ Selective Assay
Briefly, serum-starved PAW264.7 cells are stimulated with a known GPCR agonist C5a. […] Cells can be treated with test compounds prior to, simultaneously with, or subsequent to the stimulation by C5a. RAW 264.7 cells respond to the complement component fragment C5a through activation of the C5a receptor, and the C5a receptor activates macrophages and induces cell migration.

The target in a further experiment is T5, PI3K γ (Homo sapiens, UniProt P48736).
T5 construct: purchased Millipore
Description: PI3-Kinase Promega ADP-Glo Max assay. It counts as biochemical. To be noted: 40 nM kinase, 3 mM ATP, 500 uM diC8-PtdInsP. In a few lines:
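Human class I PI3K reactions ran 2 hours at room temperature, followed by stop solution (40 min) and detection mix (1 hour) before luminescence reading.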

T4 sequence (Q9JHG7 whole entry): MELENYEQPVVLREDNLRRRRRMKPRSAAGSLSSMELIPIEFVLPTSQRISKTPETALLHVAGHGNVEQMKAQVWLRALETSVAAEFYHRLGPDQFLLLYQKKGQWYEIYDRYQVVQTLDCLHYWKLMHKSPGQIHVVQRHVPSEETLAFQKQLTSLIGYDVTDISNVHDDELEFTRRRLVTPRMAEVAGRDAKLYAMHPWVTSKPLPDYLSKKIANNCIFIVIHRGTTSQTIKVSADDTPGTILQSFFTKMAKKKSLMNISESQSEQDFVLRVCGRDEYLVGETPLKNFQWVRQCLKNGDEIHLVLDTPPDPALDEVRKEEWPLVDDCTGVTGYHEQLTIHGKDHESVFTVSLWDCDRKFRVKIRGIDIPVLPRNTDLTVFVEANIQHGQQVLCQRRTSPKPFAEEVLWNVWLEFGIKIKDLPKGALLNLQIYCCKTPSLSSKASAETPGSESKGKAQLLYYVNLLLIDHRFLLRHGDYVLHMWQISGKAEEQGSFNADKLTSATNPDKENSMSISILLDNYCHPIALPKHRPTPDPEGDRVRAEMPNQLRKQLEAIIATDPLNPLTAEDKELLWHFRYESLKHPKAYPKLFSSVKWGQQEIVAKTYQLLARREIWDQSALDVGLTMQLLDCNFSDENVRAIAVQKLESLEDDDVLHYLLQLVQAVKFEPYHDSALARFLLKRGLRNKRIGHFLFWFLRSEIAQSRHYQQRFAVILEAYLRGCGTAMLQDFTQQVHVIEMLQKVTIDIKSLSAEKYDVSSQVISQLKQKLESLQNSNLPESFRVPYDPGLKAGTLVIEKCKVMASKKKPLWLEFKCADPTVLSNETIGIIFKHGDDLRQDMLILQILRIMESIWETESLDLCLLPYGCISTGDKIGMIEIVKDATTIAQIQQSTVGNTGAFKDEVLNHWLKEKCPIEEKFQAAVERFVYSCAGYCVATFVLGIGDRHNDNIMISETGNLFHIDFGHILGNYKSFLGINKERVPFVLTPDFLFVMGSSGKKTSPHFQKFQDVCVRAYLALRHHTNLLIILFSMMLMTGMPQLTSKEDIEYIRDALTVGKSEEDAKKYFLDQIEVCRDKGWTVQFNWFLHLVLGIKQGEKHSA
T1 sequence (P42336 whole entry): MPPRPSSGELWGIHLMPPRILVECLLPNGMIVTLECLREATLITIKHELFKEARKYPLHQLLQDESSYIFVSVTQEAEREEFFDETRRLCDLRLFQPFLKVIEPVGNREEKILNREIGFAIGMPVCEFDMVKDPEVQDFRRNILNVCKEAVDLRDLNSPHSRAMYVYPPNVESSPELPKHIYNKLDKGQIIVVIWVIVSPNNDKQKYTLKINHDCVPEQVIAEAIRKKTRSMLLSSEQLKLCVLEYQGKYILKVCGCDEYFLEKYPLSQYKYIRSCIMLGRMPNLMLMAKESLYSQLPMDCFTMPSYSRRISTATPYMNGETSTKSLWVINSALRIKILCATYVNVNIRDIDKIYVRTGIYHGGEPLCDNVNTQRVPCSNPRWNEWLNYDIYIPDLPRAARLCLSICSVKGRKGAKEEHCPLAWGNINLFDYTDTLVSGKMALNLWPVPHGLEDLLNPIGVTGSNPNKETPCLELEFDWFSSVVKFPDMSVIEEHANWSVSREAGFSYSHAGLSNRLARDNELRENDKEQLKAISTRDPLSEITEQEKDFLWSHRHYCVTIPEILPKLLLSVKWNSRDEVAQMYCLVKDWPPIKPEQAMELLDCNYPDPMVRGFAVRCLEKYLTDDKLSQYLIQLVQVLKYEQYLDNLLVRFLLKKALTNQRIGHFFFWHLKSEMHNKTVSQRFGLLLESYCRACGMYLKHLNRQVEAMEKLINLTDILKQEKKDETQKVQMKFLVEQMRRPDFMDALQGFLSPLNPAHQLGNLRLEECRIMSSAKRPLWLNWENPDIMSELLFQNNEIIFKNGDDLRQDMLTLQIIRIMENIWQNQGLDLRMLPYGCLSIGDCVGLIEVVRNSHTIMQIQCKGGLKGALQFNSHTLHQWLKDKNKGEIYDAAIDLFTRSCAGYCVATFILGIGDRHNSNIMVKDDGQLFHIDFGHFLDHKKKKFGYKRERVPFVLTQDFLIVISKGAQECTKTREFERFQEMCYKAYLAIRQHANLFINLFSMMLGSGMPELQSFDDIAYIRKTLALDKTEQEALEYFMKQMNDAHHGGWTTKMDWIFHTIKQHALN
T1 sequence (P27986 whole entry partner): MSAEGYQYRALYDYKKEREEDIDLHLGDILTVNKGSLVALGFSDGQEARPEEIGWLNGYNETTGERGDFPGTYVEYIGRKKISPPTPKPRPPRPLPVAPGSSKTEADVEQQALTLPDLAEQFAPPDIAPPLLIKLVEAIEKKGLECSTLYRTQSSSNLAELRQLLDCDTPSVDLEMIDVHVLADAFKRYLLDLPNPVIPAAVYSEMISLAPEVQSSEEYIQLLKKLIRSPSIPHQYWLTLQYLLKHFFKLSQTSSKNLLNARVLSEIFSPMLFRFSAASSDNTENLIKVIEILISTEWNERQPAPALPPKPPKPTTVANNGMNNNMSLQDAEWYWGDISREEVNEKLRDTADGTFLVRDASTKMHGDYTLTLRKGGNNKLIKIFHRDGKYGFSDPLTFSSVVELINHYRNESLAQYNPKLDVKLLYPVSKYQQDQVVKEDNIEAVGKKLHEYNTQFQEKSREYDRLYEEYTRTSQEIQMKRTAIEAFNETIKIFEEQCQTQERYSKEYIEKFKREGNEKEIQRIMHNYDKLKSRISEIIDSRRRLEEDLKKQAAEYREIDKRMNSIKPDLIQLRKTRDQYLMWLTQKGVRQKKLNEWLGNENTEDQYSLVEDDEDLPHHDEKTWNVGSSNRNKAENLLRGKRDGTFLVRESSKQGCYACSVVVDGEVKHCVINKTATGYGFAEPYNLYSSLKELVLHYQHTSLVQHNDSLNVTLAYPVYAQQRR
T5 sequence (P48736 whole entry): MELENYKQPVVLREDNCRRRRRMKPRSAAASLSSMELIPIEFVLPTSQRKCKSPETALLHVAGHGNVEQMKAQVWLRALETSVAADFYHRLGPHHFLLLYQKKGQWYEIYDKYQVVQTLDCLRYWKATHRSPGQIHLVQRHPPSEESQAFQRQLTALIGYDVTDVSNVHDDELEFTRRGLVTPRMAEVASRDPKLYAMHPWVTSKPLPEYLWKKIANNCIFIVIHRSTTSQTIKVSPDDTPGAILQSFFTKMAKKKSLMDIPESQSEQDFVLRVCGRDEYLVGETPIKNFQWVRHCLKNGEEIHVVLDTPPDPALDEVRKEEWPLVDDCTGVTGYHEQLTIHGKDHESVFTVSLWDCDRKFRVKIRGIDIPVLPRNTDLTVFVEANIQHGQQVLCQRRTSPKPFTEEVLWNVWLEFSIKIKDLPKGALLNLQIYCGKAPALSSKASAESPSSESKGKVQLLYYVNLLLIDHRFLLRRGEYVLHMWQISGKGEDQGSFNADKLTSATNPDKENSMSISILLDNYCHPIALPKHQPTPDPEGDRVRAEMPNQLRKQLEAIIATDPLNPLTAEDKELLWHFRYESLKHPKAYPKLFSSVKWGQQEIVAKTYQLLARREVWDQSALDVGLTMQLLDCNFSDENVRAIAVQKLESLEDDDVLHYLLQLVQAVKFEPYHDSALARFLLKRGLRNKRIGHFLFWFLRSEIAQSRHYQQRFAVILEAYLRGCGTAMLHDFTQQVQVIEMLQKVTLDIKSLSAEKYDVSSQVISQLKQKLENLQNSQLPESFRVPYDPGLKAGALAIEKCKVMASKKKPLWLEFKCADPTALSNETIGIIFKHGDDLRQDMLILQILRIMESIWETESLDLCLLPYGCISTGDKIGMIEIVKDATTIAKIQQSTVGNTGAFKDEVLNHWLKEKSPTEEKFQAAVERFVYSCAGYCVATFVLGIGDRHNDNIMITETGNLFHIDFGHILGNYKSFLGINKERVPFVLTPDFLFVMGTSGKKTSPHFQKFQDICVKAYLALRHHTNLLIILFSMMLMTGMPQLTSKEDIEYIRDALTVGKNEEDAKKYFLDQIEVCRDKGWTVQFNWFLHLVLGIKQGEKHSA
T2 sequence (P42338 whole entry): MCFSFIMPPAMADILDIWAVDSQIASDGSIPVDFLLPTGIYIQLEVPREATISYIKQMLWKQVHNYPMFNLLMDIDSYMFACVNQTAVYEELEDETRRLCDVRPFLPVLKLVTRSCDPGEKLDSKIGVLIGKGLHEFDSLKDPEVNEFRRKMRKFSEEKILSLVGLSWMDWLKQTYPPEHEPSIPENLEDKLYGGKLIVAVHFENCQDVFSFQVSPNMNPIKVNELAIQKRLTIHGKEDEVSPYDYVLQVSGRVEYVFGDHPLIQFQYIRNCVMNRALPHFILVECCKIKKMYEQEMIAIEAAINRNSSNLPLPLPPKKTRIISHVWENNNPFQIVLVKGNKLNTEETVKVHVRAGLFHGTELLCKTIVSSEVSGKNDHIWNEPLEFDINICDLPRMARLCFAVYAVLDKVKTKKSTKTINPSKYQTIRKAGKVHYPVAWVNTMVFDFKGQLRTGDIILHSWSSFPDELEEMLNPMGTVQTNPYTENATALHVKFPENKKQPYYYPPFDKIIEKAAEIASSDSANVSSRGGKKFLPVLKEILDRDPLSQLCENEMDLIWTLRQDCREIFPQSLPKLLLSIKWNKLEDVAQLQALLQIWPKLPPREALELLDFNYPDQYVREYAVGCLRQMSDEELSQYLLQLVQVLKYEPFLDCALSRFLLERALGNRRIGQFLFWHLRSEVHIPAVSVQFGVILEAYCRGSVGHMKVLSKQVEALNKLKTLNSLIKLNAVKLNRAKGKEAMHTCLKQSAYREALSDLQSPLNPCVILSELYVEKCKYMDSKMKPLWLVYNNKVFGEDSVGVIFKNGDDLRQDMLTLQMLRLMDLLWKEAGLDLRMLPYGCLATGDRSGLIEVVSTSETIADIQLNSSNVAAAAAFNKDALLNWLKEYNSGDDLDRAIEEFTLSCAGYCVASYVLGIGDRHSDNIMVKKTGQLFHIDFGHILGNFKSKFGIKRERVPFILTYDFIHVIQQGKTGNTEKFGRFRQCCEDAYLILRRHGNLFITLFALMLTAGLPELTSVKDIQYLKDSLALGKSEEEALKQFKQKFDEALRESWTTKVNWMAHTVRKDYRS
T2 sequence (P27986 whole entry partner): as the sequence (P27986 whole entry partner) above
Description for RAJI p110 δ: (a) PI3K-δ Selective Assay
Reduction of phospho-AKT is indicative of compounds that may inhibit B-cell proliferation and function in certain diseases.

In general, IC50 refers to the point on the concentration scale where inhibition reaches its midpoint. High values mean a need for much substance, low ones inhibition by little substance. As to `Cc1ccn2ncc(C(=O)N[C@@H](C)c3cc4cccc(Cl)c4c(=O)n3-c3ccccc3)c2n1` [Compound 82], the IC50 was above 10 µM on PI3K α; 1 to 10 µM against PI3K β; 1 to 10 µM against PI3K δ; 0.1 to 1 µM on RAJI p110 δ; 0.1 to 1 µM against Raw264.7 p110 γ; 1 to 10 µM at PI3K γ.
`CNS(=O)(=O)c1cccc(-c2cnc(N)c(C(=O)N[C@@H](C)c3cc4cccc(Cl)c4c(=O)n3-c3ccccc3)n2)c1` [Compound 83]: the IC50 at PI3K α is 1 to 10 µM; at PI3K β it was 0.1 to 1 µM; against PI3K δ, 1 to 10 µM; at RAJI p110 δ, below 0.1 µM; on Raw264.7 p110 γ, below 0.1 µM; on PI3K γ it was 0.1 to 1 µM.
Take `C[C@H](NC(=O)c1nc(-c2cccc(NS(C)(=O)=O)c2)cnc1N)c1cc2cccc(Cl)c2c(=O)n1-c1ccccc1` [Compound 85]: the IC50 against PI3K α is 1 to 10 µM; at PI3K β, 0.1 to 1 µM; at PI3K δ, 1 to 10 µM; on RAJI p110 δ, below 0.1 µM; against Raw264.7 p110 γ, below 0.1 µM; on PI3K γ it was below 0.1 µM.
As for `C[C@H](NC(=O)c1nc(-c2cccc(S(=O)(=O)NC(C)(C)C)c2)cnc1N)c1cc2cccc(Cl)c2c(=O)n1-c1ccccc1` [Compound 86], the IC50 against PI3K α is 1 to 10 µM; at PI3K β, 1 to 10 µM; at PI3K δ, 1 to 10 µM; against RAJI p110 δ, below 0.1 µM; against Raw264.7 p110 γ it was below 0.1 µM; against PI3K γ, 0.1 to 1 µM.
With `CC(C)Oc1ccc(-c2cnc(N)c(C(=O)N[C@@H](C)c3cc4cccc(Cl)c4c(=O)n3-c3ccccc3)n2)cc1F` [Compound 87], the IC50 is 1 to 10 µM on PI3K α; above 10 µM at PI3K β; 1 to 10 µM against PI3K δ; 1 to 10 µM at RAJI p110 δ; 0.1 to 1 µM against Raw264.7 p110 γ; 0.1 to 1 µM against PI3K γ.
Take `CC(C)Oc1ccc(-c2cnc(N)c(C(=O)N[C@@H](C)c3cc4cccc(Cl)c4c(=O)n3-c3ccccc3)n2)cc1Cl` [Compound 88]: the IC50 against PI3K α is above 10 µM; at PI3K β it was above 10 µM; against PI3K δ, above 10 µM; at RAJI p110 δ, above 10 µM; against Raw264.7 p110 γ it was 1 to 10 µM; against PI3K γ it was 1 to 10 µM.
In the case of `Cc1cnc(N)c(C(=O)N[C@@H](C)c2cc3cccc(Cl)c3c(=O)n2-c2ccccc2)n1` [Compound 89], the half-inhibitory concentration (IC50) was above 10 µM against PI3K α; 1 to 10 µM on PI3K β; 1 to 10 µM against PI3K δ; 0.1 to 1 µM against RAJI p110 δ; 0.1 to 1 µM at Raw264.7 p110 γ; 1 to 10 µM on PI3K γ.
As to `C[C@H](NC(=O)c1nc(-c2ccc(S(C)(=O)=O)cc2)cnc1N)c1cc2cccc(Cl)c2c(=O)n1-c1ccccc1` [Compound 90], the IC50 on PI3K α was above 10 µM; at PI3K β, above 10 µM; against PI3K δ, above 10 µM; on RAJI p110 δ, 1 to 10 µM; against Raw264.7 p110 γ it was 0.1 to 1 µM; at PI3K γ, 1 to 10 µM.
`C[C@H](NC(=O)c1nc(-c2cccc(S(=O)(=O)N(C)C)c2)cnc1N)c1cc2cccc(Cl)c2c(=O)n1-c1ccccc1` [Compound 91]: the IC50 on PI3K α is above 10 µM; against PI3K β it was 1 to 10 µM; at PI3K δ it was 1 to 10 µM; against RAJI p110 δ, 0.1 to 1 µM; on Raw264.7 p110 γ it was 0.1 to 1 µM; against PI3K γ, 1 to 10 µM.
Turning to `C[C@H](NC(=O)c1nc(-c2cccc(S(=O)(=O)N3CCCC3)c2)cnc1N)c1cc2cccc(Cl)c2c(=O)n1-c1ccccc1` [Compound 92], the IC50 at PI3K α was above 10 µM; against PI3K β, 1 to 10 µM; against PI3K δ, 1 to 10 µM; against RAJI p110 δ, 1 to 10 µM; against Raw264.7 p110 γ, 1 to 10 µM; at PI3K γ it was 1 to 10 µM.
`COc1ccc(-c2cnc(N)c(C(=O)N[C@@H](C)c3cc4cccc(Cl)c4c(=O)n3-c3ccccc3)n2)cc1OC` [Compound 93]: the IC50 was 1 to 10 µM on PI3K α; 1 to 10 µM on PI3K β; 1 to 10 µM against PI3K δ; 0.1 to 1 µM at RAJI p110 δ; below 0.1 µM against Raw264.7 p110 γ; 0.1 to 1 µM at PI3K γ.
Consider `C[C@H](NC(=O)c1nc(-c2cccc(S(=O)(=O)NC3CC3)c2)cnc1N)c1cc2cccc(Cl)c2c(=O)n1-c1ccccc1` [Compound 96], for which the IC50 against PI3K α was above 10 µM; against PI3K β it was 1 to 10 µM; on PI3K δ it was 1 to 10 µM; at RAJI p110 δ, below 0.1 µM; against Raw264.7 p110 γ it was below 0.1 µM; at PI3K γ, 1 to 10 µM.
On to `CC(C)NS(=O)(=O)c1cccc(-c2cnc(N)c(C(=O)N[C@@H](C)c3cc4cccc(Cl)c4c(=O)n3-c3ccccc3)n2)c1` [Compound 97], for which the half-inhibitory concentration (IC50) on PI3K α was 1 to 10 µM; on PI3K β, 0.1 to 1 µM; against PI3K δ, 1 to 10 µM; on RAJI p110 δ it was below 0.1 µM; at Raw264.7 p110 γ it was below 0.1 µM; at PI3K γ, 0.1 to 1 µM.
Turning to `CC(C)Oc1ccc(-c2cnc(N)c(C(=O)N[C@@H](C)c3cc4cccc(Cl)c4c(=O)n3-c3ccccc3)n2)cn1` [Compound 98], the 50% inhibitory concentration (IC50) against PI3K α is above 10 µM; against PI3K β, above 10 µM; against PI3K δ it was 1 to 10 µM; against RAJI p110 δ it was 0.1 to 1 µM; against Raw264.7 p110 γ, 0.1 to 1 µM; at PI3K γ it was 1 to 10 µM.
As for `C[C@H](NC(=O)c1nc(-c2cccc(NS(=O)(=O)N(C)C)c2)cnc1N)c1cc2cccc(Cl)c2c(=O)n1-c1ccccc1` [Compound 99], the IC50 was 1 to 10 µM against PI3K α; 0.1 to 1 µM on PI3K β; 0.1 to 1 µM against PI3K δ; below 0.1 µM against RAJI p110 δ; below 0.1 µM against Raw264.7 p110 γ; below 0.1 µM against PI3K γ.
With `COc1ccc(-c2cnc(N)c(C(=O)N[C@@H](C)c3cc4cccc(Cl)c4c(=O)n3-c3ccccc3)n2)cc1NS(C)(=O)=O` [Compound 101], the IC50 against PI3K α is 0.1 to 1 µM; against PI3K β it was 0.1 to 1 µM; at PI3K δ, 1 to 10 µM; against RAJI p110 δ it was below 0.1 µM; at Raw264.7 p110 γ it was below 0.1 µM; at PI3K γ it was below 0.1 µM.
Regarding `C[C@H](NC(=O)c1nc(-c2cccc(NS(=O)(=O)C3CC3)c2)cnc1N)c1cc2cccc(Cl)c2c(=O)n1-c1ccccc1` [Compound 102], the IC50 against PI3K α is 1 to 10 µM; at PI3K β, 0.1 to 1 µM; on PI3K δ, 1 to 10 µM; against RAJI p110 δ, below 0.1 µM; against Raw264.7 p110 γ, below 0.1 µM; on PI3K γ, below 0.1 µM.
On to `C[C@H](NC(=O)c1nc(-c2ccc(NS(C)(=O)=O)cc2)cnc1N)c1cc2cccc(Cl)c2c(=O)n1-c1ccccc1` [Compound 103], for which the IC50 at PI3K α is above 10 µM; against PI3K β, above 10 µM; on PI3K δ it was above 10 µM; against RAJI p110 δ it was 1 to 10 µM; against Raw264.7 p110 γ it was 0.1 to 1 µM; at PI3K γ, 1 to 10 µM.
Turning to `C[C@H](NC(=O)c1nc(-c2cccc(O)c2)cnc1N)c1cc2cccc(Cl)c2c(=O)n1-c1ccccc1` [Compound 104], the IC50 on PI3K α is above 10 µM; on PI3K β, 1 to 10 µM; against PI3K δ, above 10 µM; against RAJI p110 δ, 0.1 to 1 µM; against Raw264.7 p110 γ it was 0.1 to 1 µM; against PI3K γ, 1 to 10 µM.
As for `CC(C)Oc1ccc(-c2cnc(N)c(C(=O)N[C@@H](C)c3cc4cccc(Cl)c4c(=O)n3-c3ccccc3)n2)cc1` [Compound 106], the IC50 against PI3K α was above 10 µM; at PI3K β, above 10 µM; against PI3K δ, above 10 µM; against RAJI p110 δ it was above 10 µM; against Raw264.7 p110 γ, 0.1 to 1 µM; at PI3K γ, 1 to 10 µM.
Regarding `C[C@H](NC(=O)c1nc(-c2cncc(NS(C)(=O)=O)c2)cnc1N)c1cc2cccc(Cl)c2c(=O)n1-c1ccccc1` [Compound 107], the IC50 against PI3K α is 0.1 to 1 µM; on PI3K β it was below 0.1 µM; on PI3K δ, 0.1 to 1 µM; against RAJI p110 δ it was 0.1 to 1 µM; at Raw264.7 p110 γ it was below 0.1 µM; at PI3K γ, below 0.1 µM.
On to `C[C@H](NC(=O)c1nc(-c2cccc(S(N)(=O)=O)c2)cnc1N)c1cc2cccc(Cl)c2c(=O)n1-c1ccccc1` [Compound 108], for which the IC50 on PI3K α was 1 to 10 µM; on PI3K β it was 0.1 to 1 µM; against PI3K δ, 1 to 10 µM; on RAJI p110 δ, 0.1 to 1 µM; on Raw264.7 p110 γ it was below 0.1 µM; against PI3K γ, 0.1 to 1 µM.
As to `C[C@H](NC(=O)c1nc(-c2cnn(C)c2)cnc1N)c1cc2cccc(Cl)c2c(=O)n1-c1ccccc1` [Compound 109], the IC50 is 1 to 10 µM against PI3K α; 1 to 10 µM against PI3K β; above 10 µM against PI3K δ; 0.1 to 1 µM on RAJI p110 δ; below 0.1 µM against Raw264.7 p110 γ; 1 to 10 µM against PI3K γ.
Turning to `C[C@H](NC(=O)c1nc(-c2cn[nH]c2)cnc1N)c1cc2cccc(Cl)c2c(=O)n1-c1ccccc1` [Compound 110], the IC50 is 1 to 10 µM against PI3K α; 1 to 10 µM on PI3K β; 1 to 10 µM against PI3K δ; below 0.1 µM against RAJI p110 δ; below 0.1 µM against Raw264.7 p110 γ; 0.1 to 1 µM against PI3K γ.
